Test results taken from US6613797B2, “Xanthone analogs for treating infectious diseases and complexation of heme and porphyrins” (Interlab, Inc., priority 1999, dated 2003).
Converted amounts (≈) assume the structure as drawn. Read-outs that look alike come from different tables or passages of the source. Blank lines part the entries; values can stand above or below the compound they belong to.

Columns and labels:
Leishmania donovani [1] = settings: Table 2; literature reported value; cited from earlier work
[2] = system: Plasmodium falciparum D6 strain; test: in vitro anti-malarial activity, [3H]-ethanolamine incorporation method; type: cell-based; settings: Plasmodium falciparum, D6; Table 1, reproduced from U.S. Pat. No. 5,977,077; read-out: IC50, μM vs. Plasmodium
Procedure: Cultures were maintained at 37° C. in a gas mixture of 5% oxygen, 5% CO2, and 90% nitrogen.
[^3H]-ethanolamine was obtained from American Radiolabeled Chemicals, Inc., St. Louis, Mo. Experiments were conducted in 96 well plates in a total volume of 200 μl at a final red blood cell concentration of 2% (v/v). An initial parasitemia of 0.2 to 0.5% was attained by addition of normal uninfected red cells. Radiolabeled ethanolamine was added after 48 hours of incubation and the experiment was terminated after 72 hours by collecting the cells onto glass fiber filters with an automated multiwell harvester.
Stock solutions of the various Formula X1 compounds were dissolved in DMSO at a concentration of 1 mM and diluted in complete medium (including 10% human serum) to provide 10X stock concentrations in the range of 1 to 10,000 nM.

Leishmania donovani [3] = test: anti-Leishmania activity, promastigote radiolabeled thymidine uptake assay; type: cell-based
Procedure: Leishmania donovani was cultivated in Schneider's medium (Gibco, Grand Island, N.Y.) according to the methods described by Grogl et al. (1992). The in vitro susceptibility of L. donovani to Formula X1 compounds was determined using the radiolabeled thymidine uptake assay essentially as described by Grogl et al. (1992). Briefly, promastigotes were cultivated at 25° C. in Schneider's medium supplemented with 20% inactivated fetal calf serum and 100 μg/mL of gentamicin. Cells were maintained in log phase by seeding at 1×10^6/mL with subculturing when cultured densities approached 4×10^7/mL before reaching their maximal density. For the assay, early log phase promastigotes were counted on a hemacytometer and resuspended at a concentration of 1-2×10^6 cell/mL in assay media (Schneider's medium plus 10% fetal bovine serum). Ten-fold serial dilutions of each test compound were prepared as described above and added to 180 μL of the parasite suspension. After incubation for 24 hours at 25° C., methyl-^3H-thymidine was added to each sample for a final concentration of 1-2 μCi per well. Each sample was then incubated for an additional 18 hours prior to harvesting. After this incubation time, each sample was aspirated onto a filter mat, washed thoroughly with deionized water, dried and then counted in a scintillation counter with scintillation cocktail. […]

[4] = system: intracellular amastigotes of Leishmania mexicana M379; test: intracellular amastigote assay in infected murine macrophages; type: cell-based; settings: Leishmania mexicana, Macrophage, read-out: IC50, anti-leishmanial activity
Procedure: Bone-marrow-derived macrophages (BALB/c) were cultured with L-cell-conditioned medium for 5-7 days at 35° C. After this period of incubation, mature macrophages were transferred to Labtek 4-chamber slides containing DMEM (Dulbecco's Modified Eagle's Medium) and 10% fetal calf serum. 50,000 cells were seeded in each chamber and allowed to attach overnight at 37° C. in a humidified incubator flushed with 5% CO2. On the next day the macrophages were infected at an MOI (Multiplicity of Infection) of 10:1 with stationary promastigotes of L. mexicana. After twenty-four hours, the medium was removed and fresh medium was added containing various drug concentrations (0-5 μM). Following incubation for an additional forty-eight hours, one set of slides were fixed in methanol, dried, and stained with Giemsa stain. Fresh medium and drug were added to a parallel set of chamber slides and incubated for another 48 hours before staining. […] Microscopic inspection permitted determination of % of infected macrophages and the number of amastigotes per 100 macrophages. The IC50 value is that concentration of drug that reduces the amastigote number by 50% relative to drug-free controls. Results also were obtained in parallel fashion with macrophages.
Intracellular amastigote studies. […] Because the amastigote stage is the only relevant clinical form of the parasites, we examined the activity of the nitrogenated xanthones against the heme-auxotrophic, intracellular amastigote form of L. mexicana. Stationary promastigotes of L. mexicana M379 rapidly invaded murine peritoneal macrophages obtained from BALB/c mice and incubated at 35° C. producing heavily burdened cells with 10 to 50 amastigotes per macrophage within 24 hours. An experiment was performed to investigate the ability of selected xanthones to reduce the number of intracellular amastigotes using this model. The IC50 value is that concentration of drug required to reduce the intracellular parasite burden by 50% relative to a drug-free control chamber. We tested the xanthone series against amastigote-infected murine peritoneal macrophages. Macrophages were seeded into Labtek chamber slides (25,000 per well/8 chamber slide) and allowed to incubate overnight in Dulbecco's Modified Eagle Medium (DMEM) supplemental with 10% fetal calf serum. On the next day the cells were infected with L. mexicana promastigotes at an MOI of 5:1 and then incubated for 24 hours at 35° C. After incubation, the monolayers were washed with buffer and medium containing varying concentrations of each xanthone (0 to 10 μM) was added to each chamber. After 48 hours of incubation (i.e., Day 3 of the experiment) one set of slides was removed, fixed with methanol, and stained with Giemsa. For another set of slides, we replenished the culture medium, added fresh drug to each well as appropriate, and then incubated the chambers for another 48 hours before staining with Giemsa. IC50 values were then averaged for 3 separate experiments and the results are presented in Table 4 and graphically in FIG. 7. […] The IC50 values recorded for C5 and C6 exposure for 96 hours of treatment were 6 nM and 2 nM.

[5] = system: malaria Plasmodium parasites; settings: rufigallol combined with exifone; cited from earlier work

Compound: Stibogluconate [Stibogluconate [Sodium Antimony (V) Gluconate]]
- IC50 mg/ml for Leishmania (Leishmania donovani [1]): 0.1 to 1.0 literature reported value mg/ml

- IC50 [2]: 50 µM
- IC50 (Leishmania donovani [3]; Table 2, read-out: IC50 mg/ml for Leishmania): > 0.05 mg/mL
Compound: O=c1c2cc(O)c(O)cc2oc2cc(O)c([C@@H]3O[C@H](CO)[C@@H](O)[C@H](O)[C@H]3O)c(O)c12 [Mangiferin, reference compound]

Compound: COc1c(O)cc2oc3cc(O)c(CC=C(C)C)c(O)c3c(=O)c2c1CC=C(C)C [Mangostin, reference compound]
- IC50 [2]: 5 µM
- IC50 [4]: 0.41 µg/mL
- IC50 ([4]; intracellular amastigote method): 1 µM
- IC50 (Leishmania donovani [3]; read-out: IC50 mg/ml for Leishmania): 0.00041 mg/mL (≈ 0.999 µM)

Compound: O=C1c2cc(O)c(O)c(O)c2C(=O)c2cc(O)c(O)c(O)c21 [rufigallol, 1,2,3,5,6,7,-hexahydroxy-9,10-anthraquinone]
- increase in potency against malaria Plasmodium parasites [5]: ~350 fold
